Measured values from patent US10457707B2, “Substituted urea depsipeptide analogs as activators of the CLPP endopeptidase” (priority 2015, dated 2019).
Converted amounts (≈) assume the structure as drawn. Read-outs that look alike come from different tables or passages of the source. *1 amine or outer side, *2 acyl side, *3 side chain or, on linkers, in order; H or OH if unused. Where a SMILES comes first, the peptide text is derived from it. Bridges are numbered along the chain shown (N, C = ends). [ ]: non-standard residue; d: D form. The star is where a group is joined. ξ: configuration not given here. NH(1,3-benzodioxol-5-yl) = c1cc2c(cc1N*)OCO2; Phe(3,5-F2) = N[C@@H](Cc1cc(F)cc(F)c1)C(=O)O; NH(4-OCF3-phenyl) = FC(F)(F)Oc1ccc(N*)cc1; Pro(4S-Me) = C[C@@H]1CN[C@H](C(=O)O)C1; Pro(4R-Me) = C[C@H]1CN[C@H](C(=O)O)C1; X11 = O=C(C1C[C@@H](F)CN1[*:1])[*:2]; X10 = O=C(C1C[C@H](F)CN1[*:1])[*:2]; ξPro(4S-Me) = C[C@@H]1CNC(C(=O)O)C1; ξPro(4R-Me) = C[C@H]1CNC(C(=O)O)C1; Hyp = O=C(O)[C@@H]1C[C@@H](O)CN1; NH(4-Me-phenyl) = Cc1ccc(N*)cc1; aThr = C[C@H](O)[C@H](N)C(=O)O; X5 = O=C(C1COCCN1[*:1])[*:2]; Pip = O=C(O)[C@@H]1CCCCN1; NMeA = CN[C@@H](C)C(=O)O; ξPip = O=C(O)C1CCCCN1; CO = O=C([*:1])[*:2]; ξP = O=C(O)C1CCCN1

How the values were obtained:
Format in all cases: cell-based
[1] = tested on: Bacillus subtilis, ATCC 23857; experiment: Minimal inhibitory concentration assay (microbroth dilution)
Protocol: (§1) It is understood, that in various aspects, the MIC is determined by a microbroth dilution method. In a further aspect, the MIC is determined by a microbroth dilution method using Staphylococcus aureus, ATCC 29213. In a still further aspect, the MIC is determined by a microbroth dilution method using Staphylococcus aureus, NRS70. In a yet further aspect, the MIC is determined by a microbroth dilution method using Streptococcus pyogenes, ATCC 700294. In an even further aspect, the MIC is determined by a microbroth dilution method using Streptococcus pneumoniae, DAW27. In a still further aspect, the MIC is determined by a microbroth dilution method using Bacillus subtilis, ATCC 23857. In a yet further aspect, the MIC is determined by a microbroth dilution method using Enterococcus faecalis, ATCC 33186. In an even further aspect, the MIC is determined using Staphylococcus aureus, USA 300. In a still further aspect, the MIC is determined using Streptococcus pneumoniae, R6. In a further aspect, the MIC is determined using Staphylococcus aureus, USA 300 and compared to the MIC determined using Staphylococcus aureus, USA 300 wherein ClpP is inactivated, thus allowing confirmation that killing is via a ClpP-dependent pathway.
(§2) Minimal inhibitory concentrations (“MICs”) were determined using the microbroth dilution method according to Clinical Laboratory Standards Institute (CLSI; National, C.F. C. L. S., Methods for Dilution Antimicrobial Susceptibility Tests for Bacteria Grow aerobically-Seventh Edition: Approved Standard M7-A7, CLSI, Wayne, Pa., USA, 2008) and were read by visual inspection. Two fold serial dilutions of test compound in 100 μL of the appropriate broth media were first prepared in 96-well round bottom microtiter plates (Nalgene Nunc International, Rochester, N.Y., USA). An equivalent volume (100 μL) of bacterial broth inocula containing approximately 10^5 bacterial cfu/mL was added to each well to give final concentrations of test compound starting at 200 μM. The plates were then incubated aerobically at 37° C. All strains were incubated overnight. After incubations, in all cases the MIC was recorded as the lowest concentration of drug that prevented bacterial growth. The bacterial strains for which MIC was determined as described in Table 4.

[2] = tested on: Staphylococcus aureus, ATCC 29213; experiment: as above; conditions: ATCC29213, read-out: Minimal Inhibitory Concentrations S. aureus ATCC 29213
Protocol: as §1, §2

[3] = tested on: Staphylococcus aureus, NRS70; experiment: as above
Protocol: as §1, §2

[4] = tested on: Streptococcus pyogenes, ATCC 700294; experiment: as above
Protocol: as §1
Minimal inhibitory concentrations (“MICs”) were determined using the microbroth dilution method according to Clinical Laboratory Standards Institute (CLSI; National, C.F. C. L. S., Methods for Dilution Antimicrobial Susceptibility Tests for Bacteria Grow aerobically-Seventh Edition: Approved Standard M7-A7, CLSI, Wayne, Pa., USA, 2008) and were read by visual inspection. Two fold serial dilutions of test compound in 100 μL of the appropriate broth media were first prepared in 96-well round bottom microtiter plates (Nalgene Nunc International, Rochester, N.Y., USA). […] The plates were then incubated aerobically at 37° C. All strains were incubated overnight. After incubations, in all cases the MIC was recorded as the lowest concentration of drug that prevented bacterial growth. The bacterial strains for which MIC was determined as described in Table 4.

[5] = tested on: Staphylococcus aureus, USA 300 wherein ClpP is inactivated; experiment: Minimal inhibitory concentration assay
Protocol: as §1, §2

[6] = tested on: Staphylococcus aureus, USA 300; experiment: Minimal inhibitory concentration assay; conditions: USA300, read-out: Minimal Inhibitory Concentrations S. aureus USA 300
Protocol: as §1, §2

[7] = tested on: Streptococcus pneumoniae, R6; experiment: Minimal inhibitory concentration assay; conditions: read-out: Minimal Inhibitory Concentrations S. pneumoniae R6
Protocol: It is understood, that in various aspects, the MIC is determined by a microbroth dilution method. […] In a still further aspect, the MIC is determined by a microbroth dilution method using Staphylococcus aureus, NRS70. […] In an even further aspect, the MIC is determined by a microbroth dilution method using Streptococcus pneumoniae, DAW27. […] In an even further aspect, the MIC is determined using Staphylococcus aureus, USA 300. In a still further aspect, the MIC is determined using Streptococcus pneumoniae, R6. In a further aspect, the MIC is determined using Staphylococcus aureus, USA 300 and compared to the MIC determined using Staphylococcus aureus, USA 300 wherein ClpP is inactivated, thus allowing confirmation that killing is via a ClpP-dependent pathway.
Two fold serial dilutions of test compound in 100 μL of the appropriate broth media were first prepared in 96-well round bottom microtiter plates (Nalgene Nunc International, Rochester, N.Y., USA). […] The plates were then incubated aerobically at 37° C. All strains were incubated overnight. After incubations, in all cases the MIC was recorded as the lowest concentration of drug that prevented bacterial growth. The bacterial strains for which MIC was determined as described in Table 4.

[8] = tested on: Enterococcus faecalis, ATCC 33186; experiment: Minimal inhibitory concentration assay (microbroth dilution); conditions: Enterococcus faecalis, ATCC33186; read-out: Minimal Inhibitory Concentrations E. faecalis ATCC 33186
Protocol: as §1, §2

[9] = Bacillus subtilis, ATCC23857, read-out: Minimal Inhibitory Concentrations B. subtilis ATCC 23857
[10] = Staphylococcus aureus, NRS70, read-out: Minimal Inhibitory Concentrations S. aureus NRS70
[11] = Streptococcus pyogenes, ATCC700294, read-out: Minimal Inhibitory Concentrations S. pyogenes ATCC 700294
[12] = Bacillus subtilis, ATCC23857; read-out: Minimal Inhibitory Concentrations B. subtilis ATCC 23857
[13] = Staphylococcus aureus, NRS70; read-out: Minimal Inhibitory Concentrations S. aureus NRS70
[14] = Streptococcus pyogenes, ATCC700294; read-out: Minimal Inhibitory Concentrations S. pyogenes ATCC 700294

SMILES	MIC [1, 9] [µM]	MIC [2] [µM]	MIC [3, 10] [µM]	MIC [4, 11] [µM]	Minimal Inhibitory Concentrations S. aureus USA 300 ΔClpP [5] [µM]	MIC [6] [µM]	MIC [7] [µM]	MIC [1, 12] [µM]	MIC [8] [µM]	MIC [3, 13] [µM]	MIC [4, 14] [µM]
Cc1ccc(NC(=O)N[C@@H](Cc2cc(F)cc(F)c2)C(=O)N[C@@H]2C(=O)N3CCCC3C(=O)N3CCOCC3C(=O)N[C@@H](C)C(=O)N3C[C@H](C)CC3C(=O)O[C@H]2C)cc1 (stereo partly drawn) [Compound 47, (S)-3-(3,5-difluorophenyl)-2-(3-(p-tolyl)ureido)-N-((6aS,12S,13S,15aS,17R,21S,23aS)-13,17,21-trimethyl-6,11,15,20,23-pentaoxooctadecahydro-6H,11H,15H-[1,4]oxazino[3,4-i]dipyrrolo[2,1-c:2′,1′-l][1]oxa[4,7,10,13]tetraazacyclohexadecin-12-yl)propanamide] ({NH(4-Me-phenyl)-CO}-[Phe(3,5-F2)][aThr][ξP][X5]A[ξPro(4R-Me)]; ester 2-C)	0.8 (≈ 0.648 µg/mL)	0.003 (≈ 0.00243 µg/mL)	0.0002 (≈ 0.000162 µg/mL)	0.02 (≈ 0.0162 µg/mL)	>200	0.01 (≈ 0.0081 µg/mL)	0.002 (≈ 0.00162 µg/mL)				
Cc1ccc(NC(=O)N[C@@H](Cc2cc(F)cc(F)c2)C(=O)N[C@@H]2C(=O)N3C[C@H](O)C[C@H]3C(=O)N3CCCC[C@H]3C(=O)N[C@@H](C)C(=O)N3C[C@H](C)C[C@H]3C(=O)O[C@H]2C)cc1 [Compound 216, (S)-3-(3,5-difluorophenyl)-N-((2R,6S,8aS,14aS,16R,20S,21S,23aS)-16-hydroxy-2,6,21-trimethyl-5,8,14,19,23-pentaoxooctadecahydro-1H,5H,14H,19H-pyrido[2,1-i]dipyrrolo[2,1-c:2′,1′-l][1]oxa[4,7,10,13]tetraazacyclohexadecin-20-yl)-2-(3-(p-tolyl)ureido)propanamide] ({NH(4-Me-phenyl)-CO}-[Phe(3,5-F2)][aThr][Hyp][Pip]A[Pro(4R-Me)]; ester 2-C)	0.2 (≈ 0.165 µg/mL)		0.2 (≈ 0.165 µg/mL)	0.2 (≈ 0.165 µg/mL)		0.1 (≈ 0.0824 µg/mL)	0.001 (≈ 0.000824 µg/mL)				
C[C@@H]1NC(=O)[C@@H]2CCCCN2C(=O)[C@@H]2CCCN2C(=O)[C@@H](NC(=O)[C@H](Cc2cc(F)cc(F)c2)NC(=O)Nc2ccc3c(c2)OCO3)[C@H](C)OC(=O)[C@@H]2CCCN2C1=O [Compound 17, (S)-2-(3-(benzo[d][1,3]dioxol-5-yl)ureido)-3-(3,5-difluorophenyl)-N-((6S,8aS,14aS,20S,21S,23aS)-6,21-dimethyl-5,8,14,19,23-pentaoxooctadecahydro-1H,5H,14H,19H-pyrido[2,1-i]dipyrrolo[2,1-c:2′,1′-l][1]oxa[4,7,10,13]tetraazacyclohexadecin-20-yl)propanamide] ({NH(1,3-benzodioxol-5-yl)-CO}-[Phe(3,5-F2)][aThr]P[Pip]AP; ester 2-C)		3.1 (≈ 2.55 µg/mL)			200	3.1 (≈ 2.55 µg/mL)		0.4 (≈ 0.33 µg/mL)	< 0.1	3.1 (≈ 2.55 µg/mL)	1.5 (≈ 1.24 µg/mL)
Cc1ccc(NC(=O)N[C@@H](Cc2cc(F)cc(F)c2)C(=O)N[C@H]2COC(=O)C3C[C@@H](F)CN3C(=O)[C@H](C)NC(=O)C3CCCCN3C(=O)C3CCCN3C2=O)cc1 (stereo partly drawn) [Compound 51, (S)-3-(3,5-difluorophenyl)-N-((2R,6S,8aS,14aS,20S,23aS)-2-fluoro-6-methyl-5,8,14,19,23-pentaoxooctadecahydro-1H,5H,14H,19H-pyrido[2,1-i]dipyrrolo[2,1-c:2′,1′-l][1]oxa[4,7,10,13]tetraazacyclohexadecin-20-yl)-2-(3-(p-tolyl)ureido)propanamide] ({NH(4-Me-phenyl)-CO}-[Phe(3,5-F2)]S[ξP][ξPip]A[X11]; ester 2-C)	> 200	12.5 (≈ 9.97 µg/mL)	6.3 (≈ 5.03 µg/mL)	12.5 (≈ 9.97 µg/mL)	>200	12.5 (≈ 9.97 µg/mL)	6.3 (≈ 5.03 µg/mL)				
C[C@H]1C[C@H]2C(=O)O[C@@H](C)[C@H](NC(=O)[C@H](Cc3cc(F)cc(F)c3)NC(=O)Nc3ccc4c(c3)OCO4)C(=O)N3CCC[C@H]3C(=O)N3CCCC[C@H]3C(=O)N[C@@H](C)C(=O)N2C1 [Compound 20, (S)-2-(3-(benzo[d][1,3]dioxol-5-yl)ureido)-3-(3,5-difluorophenyl)-N-((2R,6S,8aS,14aS,20S,21S,23aS)-2,6,21-trimethyl-5,8,14,19,23-pentaoxooctadecahydro-1H,5H,14H,19H-pyrido[2,1-i]dipyrrolo[2,1-c:2′,1′-l][1]oxa[4,7,10,13]tetraazacyclohexadecin-20-yl)propanamide] ({NH(1,3-benzodioxol-5-yl)-CO}-[Phe(3,5-F2)][aThr]P[Pip]A[Pro(4S-Me)]; ester 2-C)		0.8 (≈ 0.67 µg/mL)			200	0.8 (≈ 0.67 µg/mL)		< 0.1	< 0.1	0.4 (≈ 0.335 µg/mL)	0.4 (≈ 0.335 µg/mL)
Cc1ccc(NC(=O)N[C@@H](Cc2cc(F)cc(F)c2)C(=O)N[C@H]2COC(=O)C3C[C@H](F)CN3C(=O)[C@H](C)NC(=O)C3CCCCN3C(=O)C3CCCN3C2=O)cc1 (stereo partly drawn) [Compound 50, (S)-3-(3,5-difluorophenyl)-N-((2S,6S,8aS,14aS,20S,23aS)-2-fluoro-6-methyl-5,8,14,19,23-pentaoxooctadecahydro-1H,5H,14H,19H-pyrido[2,1-i]dipyrrolo[2,1-c:2′,1′-l][1]oxa[4,7,10,13]tetraazacyclohexadecin-20-yl)-2-(3-(p-tolyl)ureido)propanamide] ({NH(4-Me-phenyl)-CO}-[Phe(3,5-F2)]S[ξP][ξPip]A[X10]; ester 2-C)	> 200	3.1 (≈ 2.47 µg/mL)	1.6 (≈ 1.28 µg/mL)	1.6 (≈ 1.28 µg/mL)	>200	3.1 (≈ 2.47 µg/mL)	0.8 (≈ 0.638 µg/mL)				
C[C@H]1CC2C(=O)O[C@@H](C)[C@H](NC(=O)[C@H](Cc3cc(F)cc(F)c3)NC(=O)Nc3ccc(OC(F)(F)F)cc3)C(=O)N3CCCC3C(=O)N(C)[C@@H](C)C(=O)N[C@@H](C)C(=O)N2C1 (stereo partly drawn) [Compound 28, (2S)-3-(3,5-difluorophenyl)-N-((2S,6S,9S,11aS,17S,18S)-2,6,9,10,18-pentamethyl-5,8,11,16,20-pentaoxohexadecahydro-1H,5H,16H-dipyrrolo[2,1-c:2′,1′-l][1]oxa[4,7,10,13]tetraazacyclohexadecin-17-yl)-2-(3-(4-(trifluoromethoxy)phenyl)ureido)propanamide] ({NH(4-OCF3-phenyl)-CO}-[Phe(3,5-F2)][aThr][ξP][NMeA]A[ξPro(4S-Me)]; ester 2-C)		0.05 (≈ 0.0426 µg/mL)				0.1 (≈ 0.0852 µg/mL)	0.029 (≈ 0.0247 µg/mL)	0.01 (≈ 0.00852 µg/mL)		0.05 (≈ 0.0426 µg/mL)	0.23 (≈ 0.196 µg/mL)
